Test results: patent US4584291A, “9-deoxy-9-tetrazolyl-derivatives of clavulanic acid, their preparation and their use” (Beecham Group p.l.c., priority 1980, dated 1986)
≈ marks a conversion by molar mass, not a printed value.

Tests used:
[1] = tested on: E.coli JT39; assay: standard MIC test, antibacterial activity of compound alone; assay type: cell-based, Escherichia coli; conditions: for MIC: Escherichia coli
Text: (§1) In a standard MIC test the following antibacterial activities were obtained.

[2] = tested on: K. aerogenes E70; assay: as above; assay type: cell-based, Klebsiella aerogenes; conditions: for MIC: Klebsiella aerogenes
Text: as §1

[3] = tested on: St. Aureus Russell; assay: as above; assay type: cell-based, Staphylococcus aureus; conditions: for MIC: Staphylococcus aureus
Text: as §1

[4] = tested on: E. coli JT39; assay: standard MIC test, synergy of tetrazolyl derivatives with amoxycillin; assay type: cell-based, Escherichia coli
Text: In a standard MIC test the following data were obtained for the synergistic activity of tetrazolyl derivatives with amoxycillin.

[5] = tested on: K. aerogenes E70; assay: as above; assay type: cell-based, Klebsiella aerogenes
[6] = tested on: St. Aureus Russell; assay: as above; assay type: cell-based, Staphylococcus aureus
[7] = amoxycillin plus compound at 1.0 μg/ml
[8] = amoxycillin plus compound at 5.0 μg/ml

Compound: O=C(O)C1C(=CCn2cnnn2)OC2CC(=O)N21 (centres unmarked) [Example 18, Lithium 9-(tetrazol-1-yl)deoxyclavulanate]
- MIC [1]: 16 µg/mL (≈ 63.7 µM)
- MIC [2]: 62.5 µg/mL (≈ 249 µM)
- MIC [3]: 16 µg/mL (≈ 63.7 µM)

Compound: Sodium 9-(5-acetamidotetrazolyl)deoxyclavulanate [Example 12]
- MIC amoxycillin [4, 7]: 4.0 µg/mL
- MIC amoxycillin [4, 8]: ≤ 0.5 µg/mL
- MIC (antibacterial activity) [1]: 16 µg/mL
- MIC (antibacterial activity) [2]: 31.2 µg/mL
- MIC amoxycillin [5, 7]: 3.1 µg/mL
- MIC amoxycillin [5, 8]: 1.5 µg/mL
- MIC (antibacterial activity) [3]: 16 µg/mL
- MIC amoxycillin [6, 7]: 0.3 µg/mL
- MIC amoxycillin [6, 8]: 0.08 µg/mL

Compound: O=CNc1nnnn1CC=C1OC2CC(=O)N2C1C(=O)[O-].[Li+] (centres unmarked) [Example 35, Lithium 9-(5-formamidotetrazolyl)deoxyclavulanate]
- MIC amoxycillin [4, 7]: 8.0 µg/mL
- MIC amoxycillin [4, 8]: 4.0 µg/mL
- MIC (antibacterial activity) [1]: 31.2 µg/mL
- MIC (antibacterial activity) [2]: 62.5 µg/mL
- MIC amoxycillin [5, 7]: 6.2 µg/mL
- MIC amoxycillin [5, 8]: 1.6 µg/mL
- MIC (antibacterial activity) [3]: 16 µg/mL
- MIC amoxycillin [6, 7]: 0.6 µg/mL
- MIC amoxycillin [6, 8]: 0.16 µg/mL

Compound: O=C(O)c1nnnn1CC=C1OC2CC(=O)N2C1C(=O)O (centres unmarked) [Example 15, Disodium 9-(5-carboxylatotetrazol-1-yl)deoxyclavulanate]
- MIC [1]: 16 µg/mL
- MIC [2]: 31.2 µg/mL
- MIC [3]: 16 µg/mL

Compound: O=C(O)C1C(=CCn2ncnn2)OC2CC(=O)N21 (centres unmarked) [Example 7, Lithium 9-tetrazol-2-yldoexyclavulanate]
- MIC [1]: 16 µg/mL (≈ 63.7 µM)
- MIC [2]: 16 µg/mL (≈ 63.7 µM)
- MIC [3]: 16 µg/mL (≈ 63.7 µM)

Compound: Cc1nnnn1CC=C1OC2CC(=O)N2C1C(=O)O (centres unmarked) [Example 25, Potassium 9-(5'-methyltetrazol-1'-yl)-9-deoxyclavulanate]
- MIC [1]: 8 µg/mL
- MIC [2]: 62.5 µg/mL
- MIC [3]: 16 µg/mL

Compound: CCOC(=O)c1nnnn1CC=C1OC2CC(=O)N2C1C(=O)O (centres unmarked) [Example 14, Lithium 9-(5-ethoxycarbonyltetrazol-1-yl)deoxyclavulanate]
- MIC [1]: 8 µg/mL (≈ 24.7 µM)
- MIC [2]: 31.2 µg/mL (≈ 96.5 µM)
- MIC [3]: 8 µg/mL (≈ 24.7 µM)

Compound: Nc1nnnn1CC=C1OC2CC(=O)N2C1C(=O)[O-].[Li+] (centres unmarked) [Example 10, Lithium 9-(5-aminotetrazolyl)deoxyclavulanate]
- MIC amoxycillin [4, 7]: 4.0 µg/mL
- MIC (antibacterial activity) [1]: 8 µg/mL
- MIC (antibacterial activity) [2]: 31.2 µg/mL
- MIC amoxycillin [5, 7]: 3.1 µg/mL
- MIC amoxycillin [5, 8]: 0.4 µg/mL
- MIC (antibacterial activity) [3]: 8 µg/mL
- MIC amoxycillin [6, 7]: 0.3 µg/mL
- MIC amoxycillin [6, 8]: 0.04 µg/mL

Compound: O=C(O)C1C(=CCn2nnnc2-c2ccccc2)OC2CC(=O)N21 (centres unmarked) [Example 27, Potassium 9-(5'-phenyltetrazol-1'-yl)-9-deoxyclavulanate]
- MIC [1]: 125 µg/mL
- MIC [2]: > 500 µg/mL
- MIC [3]: 4 µg/mL

Compound: CC1(C)S[C@@H]2[C@H](NC(=O)[C@H](N)c3ccc(O)cc3)C(=O)N2[C@H]1C(=O)O [amoxycillin, reference compound]
- MIC amoxycillin ([4]; amoxycillin alone): 2000 µg/mL
- MIC amoxycillin ([5]; amoxycillin alone): 1000 µg/mL
- MIC amoxycillin ([6]; amoxycillin alone): 500 µg/mL
